Legend:
Format in all cases: biochemical
[1] = biological target: T1, HCV NS3/4A protease complex (J4L6S strain) (Hepatitis C virus genotype 1b, UniProt O92972, C1454S/C1711G); assay: FRET peptide assay to monitor HCV NS3/4A proteolytic activity, J4L6S strain
T1 construct: DNA encoding the recombinant HCV NS3/4A protease complex (amino acids 1027 to 1711) for these strains; inferred from pET21b vector and Ni-NTA purification; made in house; host or cells: Escherichia coli BL21 (DE3), pET21b
From the text: (§1) HCV NS3 protease complexes, derived from the BMS strain, H77 strain or J4L6S strain, were generated, as described below. These purified recombinant proteins were generated for use in a homogeneous assay (see below) to provide an indication of how effective compounds of the present disclosure would be in inhibiting HCV NS3 proteolytic activity.
(§2) The H77 and J4L6S strains were used for production of recombinant NS3/4A protease complexes. DNA encoding the recombinant HCV NS3/4A protease complex (amino acids 1027 to 1711) for these strains was manipulated as described by P. Gallinari et al. (see Gallinari P, Paolini C, Brennan D, Nardi C, Steinkuhler C, De Francesco R. Biochemistry. 38(17):5620-32, (1999)). Briefly, a three-lysine solubilizing tail was added at the 3′-end of the NS4A coding region. The cysteine in the P1 position of the NS4A-NS4B cleavage site (amino acid 1711) was changed to a glycine to avoid the proteolytic cleavage of the lysine tag. Furthermore, a cysteine to serine mutation was introduced by PCR at amino acid position 1454 to prevent the autolytic cleavage in the NS3 helicase domain. […]

[2] = biological target: T2, porcine pancreatic elastase (PPE) (Sus scrofa, UniProt P00772); assay: Specificity assay, porcine pancreatic elastase; details: read-out: PPE activity in the specificity assays (IC50)
T2 construct: purchased Sigma or EMDbiosciences
T2 sequence (P00772 27-266): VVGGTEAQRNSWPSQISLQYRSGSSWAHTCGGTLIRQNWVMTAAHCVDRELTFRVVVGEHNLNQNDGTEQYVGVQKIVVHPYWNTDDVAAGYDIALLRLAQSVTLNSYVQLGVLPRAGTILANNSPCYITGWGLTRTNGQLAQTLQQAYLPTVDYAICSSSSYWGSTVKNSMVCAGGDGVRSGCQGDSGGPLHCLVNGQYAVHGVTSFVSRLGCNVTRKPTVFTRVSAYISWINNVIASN
Description: (§3) The specificities of compounds of the present disclosure were determined against a variety of serine proteases: human neutrophil elastase (HNE), porcine pancreatic elastase (PPE) and human pancreatic chymotrypsin and one cysteine protease: human liver cathepsin B. In all cases, a 96-well plate format protocol using colorimetric p-nitroaniline (pNA) substrate or fluorometric Amino-Methyl-Coumarin (AMC) substrate, specific for each enzyme was used as described previously (PCT Patent Application No. WO 00/09543) with some modifications. All enzymes were purchased from Sigma or EMDbiosciences while the substrates were from Bachem.
(§4) Each pNA assay included a 2 hours enzyme-inhibitor pre-incubation at room temperature followed by addition of substrate and hydrolysis to ˜15% conversion as measured on a Spectramax Pro microplate reader. The cathepsin B assay was initiated by adding substrate to a 10 min enzyme-inhibitor pre-incubation at room temperature, and the assay plate measured immediately using the Cytofluor Series 4000. Compound concentrations varied from 100 to 0.4 μM depending on their potency. […]
(§5) The percentage of inhibition was calculated using the formula: [1−((UVinh−UVblank)/(UVctl−UVblank))]×100 […]

[3] = biological target: T3, HCV NS3/4A protease complex (H77 strain) (Hepatitis C virus genotype 1a, UniProt P27958, C1454S/C1711G); assay: FRET peptide assay to monitor HCV NS3/4A proteolytic activity, H77 strain
T3 construct: DNA encoding the recombinant HCV NS3/4A protease complex (amino acids 1027 to 1711) for these strains; inferred from pET21b vector and Ni-NTA purification; made in house; host or cells: Escherichia coli BL21 (DE3), pET21b
T3 sequence (P27958 1027-1711 C1454S/C1711G, one chain of several): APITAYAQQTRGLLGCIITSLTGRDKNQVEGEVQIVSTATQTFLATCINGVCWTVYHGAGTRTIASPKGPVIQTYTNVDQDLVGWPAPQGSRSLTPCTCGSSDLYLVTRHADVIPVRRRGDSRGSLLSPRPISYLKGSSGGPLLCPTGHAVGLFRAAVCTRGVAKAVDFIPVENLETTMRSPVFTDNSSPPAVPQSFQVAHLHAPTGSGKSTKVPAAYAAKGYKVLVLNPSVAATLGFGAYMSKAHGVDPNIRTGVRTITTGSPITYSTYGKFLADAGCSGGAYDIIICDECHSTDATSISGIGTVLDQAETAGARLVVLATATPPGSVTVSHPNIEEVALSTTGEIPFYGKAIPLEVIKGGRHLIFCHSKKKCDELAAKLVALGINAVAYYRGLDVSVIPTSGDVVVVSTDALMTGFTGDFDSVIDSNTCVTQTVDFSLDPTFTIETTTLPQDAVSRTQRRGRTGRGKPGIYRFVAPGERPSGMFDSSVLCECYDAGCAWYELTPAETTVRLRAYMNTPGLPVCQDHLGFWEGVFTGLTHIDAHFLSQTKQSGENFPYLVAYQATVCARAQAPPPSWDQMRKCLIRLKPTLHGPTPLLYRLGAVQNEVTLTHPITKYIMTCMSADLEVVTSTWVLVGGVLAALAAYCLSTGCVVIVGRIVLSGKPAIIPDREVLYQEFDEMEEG
From the text: as §1, §2

[4] = biological target: T4, human pancreatic chymotrypsin (Homo sapiens, UniProt P17538); assay: Specificity assay, chymotrypsin; details: read-out: Chymotrypsin activity in the specificity assays (IC50)
T4 construct: purchased Sigma or EMDbiosciences
T4 sequence (P17538 19-263): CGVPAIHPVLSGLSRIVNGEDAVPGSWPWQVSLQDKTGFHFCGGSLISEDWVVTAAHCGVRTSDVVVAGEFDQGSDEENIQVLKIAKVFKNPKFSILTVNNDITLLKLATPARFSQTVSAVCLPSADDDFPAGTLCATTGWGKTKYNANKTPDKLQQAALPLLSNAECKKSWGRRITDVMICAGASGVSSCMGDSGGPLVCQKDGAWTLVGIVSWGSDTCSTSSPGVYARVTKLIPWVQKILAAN
Description: as §3, §4, §5

T1 sequence (O92972 1027-1711 C1454S/C1711G, one chain of several): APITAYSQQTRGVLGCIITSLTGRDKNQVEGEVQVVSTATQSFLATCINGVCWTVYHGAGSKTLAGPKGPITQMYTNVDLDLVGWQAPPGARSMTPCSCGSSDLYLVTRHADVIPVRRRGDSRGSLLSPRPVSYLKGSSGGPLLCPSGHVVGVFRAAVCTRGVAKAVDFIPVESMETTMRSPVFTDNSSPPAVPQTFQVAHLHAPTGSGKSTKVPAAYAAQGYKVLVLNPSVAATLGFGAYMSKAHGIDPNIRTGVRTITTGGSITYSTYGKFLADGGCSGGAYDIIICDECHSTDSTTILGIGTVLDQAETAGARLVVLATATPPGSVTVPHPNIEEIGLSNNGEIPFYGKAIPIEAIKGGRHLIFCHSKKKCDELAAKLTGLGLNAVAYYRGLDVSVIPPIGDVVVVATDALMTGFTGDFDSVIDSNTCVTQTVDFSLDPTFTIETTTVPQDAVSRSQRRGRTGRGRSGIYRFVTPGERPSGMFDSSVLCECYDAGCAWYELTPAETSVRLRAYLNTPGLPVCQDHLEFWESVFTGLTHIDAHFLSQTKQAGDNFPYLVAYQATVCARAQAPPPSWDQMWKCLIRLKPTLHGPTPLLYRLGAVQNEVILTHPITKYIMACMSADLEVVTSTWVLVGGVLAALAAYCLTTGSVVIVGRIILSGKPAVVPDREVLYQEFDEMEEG

`C=C[C@@H]1C[C@]1(NC(=O)[C@@H]1C[C@@H](OC(=O)N2Cc3cccc(F)c3C2)CN1C(=O)[C@@H](OC(=O)NC(C)(C)C)C(C)(C)C)C(=O)NS(=O)(=O)C1CC1` [Example 56Compound 56] showed an IC50 [1] of 9.8 nM, an IC50 [2] of over 100000 nM and an IC50 [3] of 17 nM. It also gave an IC50 [4] of over 100000 nM.

Reference: patent publication US7323447B2, “Hepatitis C virus inhibitors” (Bristol-Myers Squibb Company, priority 2005, dated 2008)
